Measurements: patent US12545639B2, “3-substituted phenylamidine compounds, preparation and use thereof” (PI INDUSTRIES LTD., priority 2019, dated 2026)

What was measured:
Pyricularia oryzae = test: microbe, parasite or virus in culture; type: cell-based; conditions: 168 h, read-out: control compared to the untreated check (radial growth)
Rhizoctonia solani = Rhizoctonia solani (rice sheath blight/potato black scurf) in vitro test, radial growth on potato dextrose agar; type: cell-based; conditions: 168 h, 300 ppm in potato dextrose agar, 25° C., 60% relative humidity, seven days, read-out: control compared to the untreated check (radial growth)
Botrytis cinerea = Botrytis cinerea (gray mold) in vitro test, radial growth on potato dextrose agar; type: cell-based; conditions: 168 h, 300 ppm in potato dextrose agar, 22° C., 90% relative humidity, seven days, read-out: control compared to the untreated check (radial growth)
Alternaria solani = Alternaria solani (early blight of tomato/potato) in vitro test, radial growth on potato dextrose agar; type: cell-based; conditions: 168 h, 300 ppm in potato dextrose agar, 25° C., 60% relative humidity, seven days, read-out: control compared to the untreated check (radial growth)
[1] = system: Septoria lycopersici/Corynespora cassicola (CORYCA); test: Septoria lycopersici/Corynespora cassicola (CORYCA) (leaf spot of tomato) in vitro test, radial growth on potato dextrose agar; type: cell-based; conditions: 168 h, 300 ppm in potato dextrose agar, 25° C., 70% relative humidity, seven days, read-out: control compared to the untreated check (radial growth)
Fusarium culmorum = Fusarium culmorum (foot rot of cereals) in vitro test, radial growth on potato dextrose agar; type: cell-based; conditions: 168 h, 300 ppm in potato dextrose agar, 25° C., 60% relative humidity, seven days, read-out: control compared to the untreated check (radial growth)
Procedure: Compounds were dissolved in 0.3% dimethyl sulfoxide and then added to potato dextrose agar medium just prior to dispensing it into petri dishes. 5 mL medium with the compound in the desired concentration was dispensed into 60 mm sterile petri-plates. After solidification each plate was seeded with a 5 mm size mycelial disc taken from the periphery of an actively growing virulent culture plate. Plates were incubated in growth chambers at 25° C. temperature and 60% relative humidity for seven days and then the radial growth was measured and compared to that of the untreated control.

Colletotrichum capsici = Colletotrichum capsici (anthracnose) in vitro test, radial growth on potato dextrose agar; type: cell-based; conditions: Colletotrichum truncatum, 168 h; 300 ppm in potato dextrose agar; 25° C., 60% relative humidity, seven days; read-out: control compared to the untreated check (radial growth)
Phakopsora pachyrhizi = Phakopsora pachyrhizi test in soybean, preventive, in vivo on plants; conditions: in Glycine max, read-out: Efficacy (% control), disease severity compared to the untreated check

CCN(C)C=Nc1cc(OC)cc(Cc2ccccc2Cl)c1C [Compound 265, N′-(3-(2-chlorobenzyl)-5-methoxy-2-methylphenyl)-N-ethyl-N-methylformimidamide]
≥ 70%: inhibition of growth at 300 ppm (Pyricularia oryzae) | inhibition of growth at 300 ppm (Rhizoctonia solani) | inhibition of growth at 300 ppm (Botrytis cinerea) | inhibition of growth at 300 ppm (Alternaria solani) | inhibition of growth at 300 ppm [1] | inhibition of growth at 300 ppm (Fusarium culmorum)

CCN(C)C=Nc1cc(C)cc(Cc2ccc(C#N)cc2)c1Cl [Compound 46, N′-(2-chloro-3-(4-cyanobenzyl)-5-methylphenyl)-N-ethyl-N-methylformimidamide]
≥ 70%: inhibition of growth at 300 ppm (Pyricularia oryzae) | inhibition of growth at 300 ppm (Rhizoctonia solani) | inhibition of growth at 300 ppm (Botrytis cinerea) | inhibition of growth at 300 ppm (Alternaria solani) | inhibition of growth at 300 ppm (Colletotrichum capsici) | inhibition of growth at 300 ppm (Fusarium culmorum)

CCN(C)C=Nc1cc(OC)cc(Cc2cccc(OC(F)(F)F)c2)c1C [Compound 305, N-ethyl-N′-(5-methoxy-2-methyl-3-(3-(trifluoromethoxy)benzyl)phenyl)-N-methylformimidamide]
≥ 70%: inhibition of growth at 300 ppm (Pyricularia oryzae) | inhibition of growth at 300 ppm (Rhizoctonia solani) | inhibition of growth at 300 ppm (Botrytis cinerea) | inhibition of growth at 300 ppm (Alternaria solani) | inhibition of growth at 300 ppm [1] | inhibition of growth at 300 ppm (Fusarium culmorum)

CCN(C)C=Nc1cc(C)cc(Nc2ccc(C)cc2)c1Cl [Compound 1, N′-(2-chloro-5-methyl-3-(p-tolylamino)phenyl)-N-ethyl-N-methylformimidamide]
≥ 70%: inhibition of growth at 300 ppm (Pyricularia oryzae) | inhibition of growth at 300 ppm (Rhizoctonia solani) | inhibition of growth at 300 ppm (Alternaria solani) | inhibition of growth at 300 ppm (Colletotrichum capsici) | inhibition of growth at 300 ppm (Fusarium culmorum)

CCN(C)C=Nc1cc(OC)cc(Cc2ccc(F)c(F)c2)c1C [Compound 286, N′-(3-(3,4-difluorobenzyl)-5-methoxy-2-methylphenyl)-N-ethyl-N-methylformimidamide]
≥ 70%: inhibition of growth at 300 ppm (Pyricularia oryzae) | inhibition of growth at 300 ppm (Rhizoctonia solani) | inhibition of growth at 300 ppm (Botrytis cinerea) | inhibition of growth at 300 ppm (Alternaria solani) | inhibition of growth at 300 ppm [1] | inhibition of growth at 300 ppm (Fusarium culmorum) | pest or weed control at 500 ppm (Phakopsora pachyrhizi)

CCN(C)C=Nc1cc(OC)cc(Cc2cc(C)cc(F)c2)c1C [Compound 292, N-ethyl-N′-(3-(3-fluoro-5-methylbenzyl)-5-methoxy-2-methylphenyl)-N-methylformimidamide]
≥ 70%: inhibition of growth at 300 ppm (Pyricularia oryzae) | inhibition of growth at 300 ppm (Rhizoctonia solani) | inhibition of growth at 300 ppm (Botrytis cinerea) | inhibition of growth at 300 ppm (Alternaria solani) | inhibition of growth at 300 ppm [1] | inhibition of growth at 300 ppm (Fusarium culmorum)

CCN(C)C=Nc1cc(OC)cc(Cc2ccccc2C(F)(F)F)c1C [Compound 307, N-ethyl-N′-(5-methoxy-2-methyl-3-(2-(trifluoromethyl)benzyl)phenyl)-N-methylformimidamide]
≥ 70%: inhibition of growth at 300 ppm (Pyricularia oryzae) | inhibition of growth at 300 ppm (Rhizoctonia solani) | inhibition of growth at 300 ppm (Botrytis cinerea) | inhibition of growth at 300 ppm (Alternaria solani) | inhibition of growth at 300 ppm [1] | inhibition of growth at 300 ppm (Fusarium culmorum)

CCN(C)C=Nc1cc(Cl)cc(Nc2cccc(Br)c2)c1C [Compound 164, N′-(3-((3-bromophenyl)amino)-5-chloro-2-methylphenyl)-N-ethyl-N-methylformimidamide]
≥ 70%: inhibition of growth at 300 ppm (Pyricularia oryzae) | inhibition of growth at 300 ppm (Rhizoctonia solani) | inhibition of growth at 300 ppm (Botrytis cinerea) | inhibition of growth at 300 ppm (Alternaria solani) | inhibition of growth at 300 ppm [1] | inhibition of growth at 300 ppm (Fusarium culmorum)

CCN(C)C=Nc1cc(F)cc(Cc2ccc(C(F)(F)F)cc2)c1C [Compound 188, N-ethyl-N′-(5-fluoro-2-methyl-3-(4-(trifluoromethyl)benzyl)phenyl)-N-methylformimidamide]
≥ 70%: inhibition of growth at 300 ppm (Pyricularia oryzae) | inhibition of growth at 300 ppm (Rhizoctonia solani) | inhibition of growth at 300 ppm (Botrytis cinerea) | inhibition of growth at 300 ppm (Alternaria solani) | inhibition of growth at 300 ppm [1] | inhibition of growth at 300 ppm (Fusarium culmorum) | pest or weed control at 500 ppm (Phakopsora pachyrhizi)

CCN(C)C=Nc1cc(F)cc(Cc2ccccc2Cl)c1C [Compound 142, N′-(3-(2-chlorobenzyl)-5-fluoro-2-methylphenyl)-N-ethyl-N-methylformimidamide]
≥ 70%: inhibition of growth at 300 ppm (Pyricularia oryzae) | inhibition of growth at 300 ppm (Rhizoctonia solani) | inhibition of growth at 300 ppm (Botrytis cinerea) | inhibition of growth at 300 ppm (Alternaria solani) | inhibition of growth at 300 ppm [1] | inhibition of growth at 300 ppm (Fusarium culmorum)

CCN(C)C=Nc1cc(OC)cc(Cc2ccc(F)cc2)c1C [Compound 261, N-ethyl-N′-(3-(4-fluorobenzyl)-5-methoxy-2-methylphenyl)-N-methylformimidamide]
≥ 70%: inhibition of growth at 300 ppm (Pyricularia oryzae) | inhibition of growth at 300 ppm (Rhizoctonia solani) | inhibition of growth at 300 ppm (Botrytis cinerea) | inhibition of growth at 300 ppm (Alternaria solani) | inhibition of growth at 300 ppm [1] | inhibition of growth at 300 ppm (Fusarium culmorum) | pest or weed control at 500 ppm (Phakopsora pachyrhizi)

CCN(C)C=Nc1cc(C)cc(Nc2ccc(SC(F)(F)F)cc2)c1Cl [Compound 26, N′-(2-chloro-5-methyl-3-((4-((trifluoromethyl)thio)phenyl)amino)phenyl)-N-ethyl-N-methylformimidamide]
≥ 70%: inhibition of growth at 300 ppm (Rhizoctonia solani) | inhibition of growth at 300 ppm (Botrytis cinerea) | inhibition of growth at 300 ppm (Alternaria solani) | inhibition of growth at 300 ppm (Colletotrichum capsici) | inhibition of growth at 300 ppm (Fusarium culmorum) | pest or weed control at 500 ppm (Phakopsora pachyrhizi)

CCN(C)C=Nc1cc(C)cc(Cc2cccc(F)c2)c1SC [Compound 190, N-ethyl-N′-(3-(3-fluorobenzyl)-5-methyl-2-(methylthio)phenyl)-N-methylformimidamide]
≥ 70%: inhibition of growth at 300 ppm (Pyricularia oryzae) | inhibition of growth at 300 ppm (Rhizoctonia solani) | inhibition of growth at 300 ppm (Alternaria solani) | inhibition of growth at 300 ppm (Colletotrichum capsici) | inhibition of growth at 300 ppm (Fusarium culmorum) | pest or weed control at 500 ppm (Phakopsora pachyrhizi)

CCN(C)C=Nc1cc(OC)cc(Cc2ccccc2C)c1C [Compound 262, N-ethyl-N′-(5-methoxy-2-methyl-3-(2-methylbenzyl)phenyl)-N-methylformimidamide]
≥ 70%: inhibition of growth at 300 ppm (Pyricularia oryzae) | inhibition of growth at 300 ppm (Rhizoctonia solani) | inhibition of growth at 300 ppm (Botrytis cinerea) | inhibition of growth at 300 ppm (Alternaria solani) | inhibition of growth at 300 ppm [1] | inhibition of growth at 300 ppm (Fusarium culmorum) | pest or weed control at 500 ppm (Phakopsora pachyrhizi)

CCN(C)C=Nc1cc(OC)cc(Cc2ccccc2Br)c1C [Compound 294, N′-(3-(2-bromobenzyl)-5-methoxy-2-methylphenyl)-N-ethyl-N-methylformimidamide]
≥ 70%: inhibition of growth at 300 ppm (Pyricularia oryzae) | inhibition of growth at 300 ppm (Rhizoctonia solani) | inhibition of growth at 300 ppm (Botrytis cinerea) | inhibition of growth at 300 ppm (Alternaria solani) | inhibition of growth at 300 ppm [1] | inhibition of growth at 300 ppm (Fusarium culmorum) | pest or weed control at 500 ppm (Phakopsora pachyrhizi)

CCN(C)C=Nc1cc(OC)cc(Cc2ccccc2OC(F)(F)F)c1C [Compound 299, N-ethyl-N′-(5-methoxy-2-methyl-3-(2-(trifluoromethoxy)benzyl)phenyl)-N-methylformimidamide]
≥ 70%: inhibition of growth at 300 ppm (Pyricularia oryzae) | inhibition of growth at 300 ppm (Rhizoctonia solani) | inhibition of growth at 300 ppm (Botrytis cinerea) | inhibition of growth at 300 ppm (Alternaria solani) | inhibition of growth at 300 ppm [1] | inhibition of growth at 300 ppm (Fusarium culmorum) | pest or weed control at 500 ppm (Phakopsora pachyrhizi)

CCN(C)C=Nc1cc(Cl)cc(Cc2ccc(C#N)cc2)c1C [Compound 246, N′-(5-chloro-3-(4-cyanobenzyl)-2-methylphenyl)-N-ethyl-N-methylformimidamide]
≥ 70%: inhibition of growth at 300 ppm (Pyricularia oryzae) | inhibition of growth at 300 ppm (Rhizoctonia solani) | inhibition of growth at 300 ppm (Botrytis cinerea) | inhibition of growth at 300 ppm (Alternaria solani) | inhibition of growth at 300 ppm (Colletotrichum capsici) | inhibition of growth at 300 ppm (Fusarium culmorum)

CCN(C)C=Nc1cc(OC)cc(Cc2cccc(Cl)c2)c1C [Compound 264, N′-(3-(3-chlorobenzyl)-5-methoxy-2-methylphenyl)-N-ethyl-N-methylformimidamide]
≥ 70%: inhibition of growth at 300 ppm (Pyricularia oryzae) | inhibition of growth at 300 ppm (Rhizoctonia solani) | inhibition of growth at 300 ppm (Botrytis cinerea) | inhibition of growth at 300 ppm (Alternaria solani) | inhibition of growth at 300 ppm [1] | inhibition of growth at 300 ppm (Fusarium culmorum) | pest or weed control at 500 ppm (Phakopsora pachyrhizi)

CCN(C)C=Nc1cc(OC)cc(Cc2ccc(C(F)(F)F)cc2)c1C [Compound 295, N-ethyl-N′-(5-methoxy-2-methyl-3-(4-(trifluoromethyl)benzyl)phenyl)-N-methylformimidamide]
≥ 70%: inhibition of growth at 300 ppm (Pyricularia oryzae) | inhibition of growth at 300 ppm (Rhizoctonia solani) | inhibition of growth at 300 ppm (Botrytis cinerea) | inhibition of growth at 300 ppm (Alternaria solani) | inhibition of growth at 300 ppm [1] | inhibition of growth at 300 ppm (Fusarium culmorum) | pest or weed control at 500 ppm (Phakopsora pachyrhizi)

CCN(C)C=Nc1cc(OC)cc(Cc2cc(F)ccc2Cl)c1C [Compound 293, N′-(3-(2-chloro-5-fluorobenzyl)-5-methoxy-2-methylphenyl)-N-ethyl-N-methylformimidamide]
≥ 70%: inhibition of growth at 300 ppm (Pyricularia oryzae) | inhibition of growth at 300 ppm (Rhizoctonia solani) | inhibition of growth at 300 ppm (Botrytis cinerea) | inhibition of growth at 300 ppm (Alternaria solani) | inhibition of growth at 300 ppm [1] | inhibition of growth at 300 ppm (Fusarium culmorum)
